According to patent publication US8367116B2, “Buoyant polymer particles for delivery of therapeutic agents to the central nervous system” (Seacoast Neuroscience, Inc., priority 2002, dated 2013):

Columns and labels:
[1] = tested on: rat middle cerebral artery occlusion (MCAo) stroke model; assay: Rat MCAo stroke model, drugs delivered into the ventricle (CSF) by osmotic pump (FIG. 4, FIG. 5); assay type: in vivo, Sprague-Dawley rat; conditions: given within the CSF
Experimental: The parietal branch of the middle cerebral artery of the Sprague-Dawley rat is permanently occluded with a 10-0 nylon suture. The common carotid arteries are occluded temporarily for one hour. All drugs and vehicle are given beginning two hours post ischemia. Rats are sacrificed 24-hours later and the size of the infarct measured as a percent infarction of the total volume of the brain (mm^3) using imaging analysis. […], drugs are administered into the ventricle using an Alza osmotic pump (#20010) at a flow rate of 8 ul/hr over 24 hours.
Animals were treated with vehicle (n=23), Antioxidant (n=8), Prodrug (n=7) or an NMDA antagonist (n=7).

[2] = cited from earlier work
[3] = tested on: corticospinal tract axons; assay: Severed corticospinal tract model, inosine infused into the motor cortex, axon tracing; assay type: in vivo, rats; conditions: after 14 days of treatment
Excerpt: In one model, one side of the corticospinal tract in rats is severed as it courses through the brainstem. Inosine is then infused directly into the motor cortex of the brain, the site of origin for those axons descending into the non-injured side of the corticospinal tract. After 14 days of treatment, newly grown axon branches are traced by injecting a dye into the treated nerve cells in the cortex. Animals are then sacrificed and the spinal cord examined for histology evidence of new axon growth. […] These new axonal branches then continued to descend down the injured side of the corticospinal tract, effectively replacing severed axons with new ones. […] The number of collateral (new) axons ranged up to 2,500 per treated animal, compared to 28-170 axons seen in control animals.

[4] = tested on: rats with unilateral cortical infarcts (stroke); conditions: cited from earlier work
[5] = adult rats with unilateral cortical infarcts

| SMILES | dose response on infarct [1] | citicholine dose taken up into brain tissue ([2]; administered i.v.) | citicholine dose penetrating into brain tissue ([2]; administered orally) | initial dose found in the brain ([2]; given through the blood stream) | collateral sprouting of axons from uninjured to injured side of corticospinal tract ([3]; almost all treated animals) | number of collateral (new) axons per treated animal ([3]; control animals 28-170 axons) | GAP-43 stained newly growing axons on the denervated side ([4]; FIG. 7 B, E, after stroke) | axons crossing from undamaged side of brain to denervated side of spinal cord ([4]; FIG. 7 D, after stroke) | new projections to denervated areas of midbrain and spinal cord [4, 5] | performance on behavioral measures [4, 5] | recovery of limb function ([4]; intravenous administration, same animal model) |
| --- | --- | --- | --- | --- | --- | --- | --- | --- | --- | --- | --- |
| C[N+](C)(C)CCOP(=O)(O)OP(=O)([O-])OC[C@H]1O[C@@H](n2ccc(N)nc2=O)[C@H](O)[C@@H]1O [Citicholine, Cytidine-5′-diphosphocholine] | dose response effect | about 2% | about 0.5% | less than 1% | – | – | – | – | – | – | – |
| OC[C@H]1O[C@@H](n2cnc3c(O)ncnc32)[C@H](O)[C@@H]1O [Inosine] | – | – | – | – | extensive collateral sprouting of axons | up to 2,500 | many | causes many axons (red) to cross over | stimulated neurons on the undamaged side of the brain to extend new projections | improved performance | little or no significant recovery |
